The text below walks through data of ChEMBL document CHEMBL5325414, “Novel neuroprotective pyromeconic acid derivatives with concurrent anti-Aβ deposition, anti-inflammatory, and anti-oxidation properties for treatment of Alzheimer's disease” (Eur J Med Chem, 2023).

Assay [1] addresses T1, Amyloid-beta precursor protein (Homo sapiens, UniProt P05067). The assay is described as follows: Inhibition of amyloid beta (1 to 42) (unknown origin) self aggregation at 50 uM relative to control.
The next assay deals with BV-2. In words: Antiinflammatory activity in LPS induced mouse BV-2 cells decrease in release of […] at 5 uM by […] (reference value: 100%). The class given is functional.
Assay [2] in a line: Antioxidant activity by measuring oxygen radical absorbance capacity-fluorescein values. The class given is functional.
Assay [3] deals with T1, Amyloid-beta precursor protein. In words: Inhibition of amyloid beta (1 to 42) (unknown origin) self aggregation assessed as disaggregation relative to control. The following applies: concentration not given here. More on the design: concentration or dose not given beside the values.
For assay [4] the target is unchanged. In words: Inhibition of amyloid beta (1 to 42) (unknown origin) self aggregation assessed as disaggregation.
Assay [5] has the same target. In words: Inhibition of amyloid beta (1 to 42) (unknown origin) self aggregation.

T1 sequence (P05067 whole entry): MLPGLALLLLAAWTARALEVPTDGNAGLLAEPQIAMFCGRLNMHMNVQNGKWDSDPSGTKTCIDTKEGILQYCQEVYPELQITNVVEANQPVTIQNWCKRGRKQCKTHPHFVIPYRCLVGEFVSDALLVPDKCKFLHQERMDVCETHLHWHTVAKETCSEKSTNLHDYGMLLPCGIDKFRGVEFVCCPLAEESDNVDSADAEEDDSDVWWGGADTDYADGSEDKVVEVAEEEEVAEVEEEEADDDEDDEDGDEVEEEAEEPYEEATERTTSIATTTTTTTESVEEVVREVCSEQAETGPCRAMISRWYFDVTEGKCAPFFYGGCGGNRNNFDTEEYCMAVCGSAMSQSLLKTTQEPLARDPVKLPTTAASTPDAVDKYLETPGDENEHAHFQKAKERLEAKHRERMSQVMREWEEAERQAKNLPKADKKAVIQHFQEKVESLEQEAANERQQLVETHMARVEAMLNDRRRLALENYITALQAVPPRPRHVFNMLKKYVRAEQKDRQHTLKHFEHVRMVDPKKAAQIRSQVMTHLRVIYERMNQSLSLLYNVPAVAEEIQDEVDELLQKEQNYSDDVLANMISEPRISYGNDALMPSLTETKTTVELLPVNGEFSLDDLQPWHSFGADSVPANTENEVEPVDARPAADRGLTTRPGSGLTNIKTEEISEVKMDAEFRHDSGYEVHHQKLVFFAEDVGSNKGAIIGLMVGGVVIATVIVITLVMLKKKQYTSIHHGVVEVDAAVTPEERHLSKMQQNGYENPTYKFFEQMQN

For orientation: inhibition means the percentage by which the read-out fell short of the control. Turning to `O=c1ccoc(/C=C/c2ccc(O)c(F)c2)c1O`, the inhibition in assay [1] came to 36.1%; in assay [3], 32.2%. The “Nitric oxide release (% of LPS control)” value with BV-2 stood at 86.66%. The Activity index in assay [2] is 2.78.
As for `O=c1ccocc1O`, in the assay with BV-2, the “Nitric oxide release (% of LPS control)” value is reported as 93.85%. Besides, the Activity index in assay [2] is 1.75.
For `O=c1ccoc(/C=C/c2ccc(F)cc2)c1O`, the inhibition in assay [1] is 8.6%; in assay [3], 14.8%. In addition, the “Nitric oxide release (% of LPS control)” value in the assay on BV-2 is 88.36%. In assay [2], this compound had an Activity index of 1.13.
In general, IC50 refers to the point on the concentration scale where inhibition reaches its midpoint. Regarding `COc1ccc(/C=C/c2occc(=O)c2O)cc1O`, the inhibition was determined as 57.4% in assay [1] and 48.9% in assay [3]. The IC50 in assay [4] came out at 43.2 µM; in assay [5], 43.7 µM. Besides, the “Nitric oxide release (% of LPS control)” value in the assay on BV-2 is reported as 90.08%. Moreover, the Activity index in assay [2] came out at 1.62.
Regarding `O=c1ccoc(/C=C/c2ccc(F)c(O)c2)c1O`, the inhibition amounted to 23.8% in assay [1] and 24% in assay [3]. The “Nitric oxide release (% of LPS control)” value in the assay on BV-2 was 93.87%. Moreover, the Activity index in assay [2] stood at 3.19.
Regarding `O=c1ccoc(/C=C/c2ccccc2)c1O`, the inhibition came out at 7.59% in assay [1] and 8.21% in assay [3]. In the assay with BV-2, the “Nitric oxide release (% of LPS control)” value was determined as 78.21%. The Activity index in assay [2] is 0.52.
In assay [1], `Oc1ccc(/C=C/c2cc(O)cc(O)c2)cc1` [RESVERATROL] returned an inhibition of 73.2%. Moreover, in the assay with BV-2, the “Nitric oxide release (% of LPS control)” value was determined as 86.97%.
`CN1CCN(c2ccc(/C=C/c3occc(=O)c3O)cc2)CC1`: the values for the inhibition in assay [1] and in assay [3] were 30.6% and 56.1%, respectively. The “Nitric oxide release (% of LPS control)” value in the assay with BV-2 is listed as 96.04%. The Activity index in assay [2] was found to be 2.33.
In the same order, the values of `COC(=O)c1ccc(/C=C/c2occc(=O)c2O)cc1` are 33.7%, 27.6%, 71.82% and 0.25.
As to `CN(C)c1ccc(/C=C/c2occc(=O)c2O)cc1`, the inhibition in assay [1] came to 53.7%; in assay [3] it was 47.6%. Besides, the IC50 in assay [4] came out at 42.4 µM; in assay [5] it was 47.2 µM. The “Nitric oxide release (% of LPS control)” value with BV-2 is given as 92.3%. In addition, in assay [2], the Activity index turned out to be 0.87.
Regarding `O=c1ccoc(/C=C/c2ccc(Cl)cc2)c1O`, the inhibition came out at 30.4% in assay [1] and 26.9% in assay [3]. Further, the “Nitric oxide release (% of LPS control)” value in the assay with BV-2 was 97.73%. In addition, the Activity index in assay [2] came out at 1.02.
For `O=c1ccoc(/C=C/c2cccc(Cl)c2)c1O`, the figures for the inhibition in assay [1] and in assay [3] were 23.2% and 28.2%, respectively. The “Nitric oxide release (% of LPS control)” value in the assay on BV-2 was 88.17%. Moreover, the Activity index in assay [2] amounted to 1.21.
The like results for `CC(C)(C)c1ccc(/C=C/c2occc(=O)c2O)cc1` were, in that order, 37.7%, 31.6%, 94.03% and 0.07.
The like results for `COc1ccc(/C=C/c2occc(=O)c2O)cc1OC` were, in that order, 10.4%, 20.6%, 97.14% and 1.73.
The like results for `COc1cc(/C=C/c2occc(=O)c2O)ccc1O` were, in that order, 48.5%, 42.9%, 90.67% and 1.96.
In the case of `O=c1ccoc(/C=C/c2ccc(N3CCCCC3)cc2)c1O`, the figures for the inhibition in assay [1] and in assay [3] were 59.6% and 60.5%, respectively. The IC50 in assay [4] turned out to be 27.2 µM; in assay [5], 33.4 µM. For the same compound, in the assay on BV-2, the “Nitric oxide release (% of LPS control)” value is 100.49%. In addition, in assay [2], the Activity index stood at 2.21.
Regarding `O=c1ccoc(/C=C/c2ccc(N3CCOCC3)cc2)c1O`, the inhibition in assay [1] came out at 50.4%; in assay [3] it was 65.8%. For the same compound, the results for the IC50 in assay [4] and in assay [5] were 23.9 µM and 49.4 µM, respectively. The “Nitric oxide release (% of LPS control)” value in the assay with BV-2 came to 100.11%. The compound also yielded an Activity index in assay [2] of 2.25.
With `O=c1ccoc(/C=C/c2ccc([N+](=O)[O-])cc2)c1O`, the inhibition is 56.8% in assay [1] and 62.8% in assay [3]. The concentration for half-maximal inhibition (IC50) amounted to 26.3 µM in assay [4] and 38.2 µM in assay [5]. In addition, the “Nitric oxide release (% of LPS control)” value with BV-2 was 88.99%. In addition, in assay [2], the Activity index was 0.79.
As for `O=c1ccoc(/C=C/c2cccc(F)c2)c1O`, the inhibition turned out to be 24.2% in assay [1] and 18.5% in assay [3]. Further, in the assay on BV-2, the “Nitric oxide release (% of LPS control)” value amounted to 71.55%. The Activity index in assay [2] is 1.55.
`Cc1c(C)c2c(c(C)c1O)CCC(C)(C(=O)O)O2` (stereo not drawn) had an Activity index in assay [2] of 1.
With `O=c1ccoc(/C=C/c2ccc(C(F)(F)F)cc2)c1O`, the inhibition in assay [1] was 30.5%; in assay [3], 25.9%. In the assay with BV-2, the “Nitric oxide release (% of LPS control)” value is listed as 88.82%. In assay [2], the Activity index is 0.12.
Consider `COc1cccc(/C=C/c2occc(=O)c2O)c1`, for which the inhibition stood at 13.6% in assay [1] and 42.8% in assay [3]. Also, in the assay with BV-2, the “Nitric oxide release (% of LPS control)” value is given as 72.79%. Besides, the Activity index in assay [2] was 0.8.
For the compound `O=c1ccoc(/C=C/c2ccc3ccccc3c2)c1O`, the values for the inhibition in assay [1] and in assay [3] were 50.6% and 45.9%, respectively. For the same compound, the “Nitric oxide release (% of LPS control)” value with BV-2 amounted to 102.37%. Moreover, in assay [2], the Activity index stood at 1.38.
In the same order, the values of `N#Cc1ccc(/C=C/c2occc(=O)c2O)cc1` are 16.8%, 17%, 88% and 1.9.
Consider `O=c1ccoc(/C=C/c2ccc(N3CCSCC3)cc2)c1O`, for which the results for the inhibition in assay [1] and in assay [3] were 53.9% and 62.8%, respectively. The IC50 stood at 28.5 µM in assay [4] and 46.8 µM in assay [5]. In addition, in the assay on BV-2, the “Nitric oxide release (% of LPS control)” value turned out to be 98.13%. Moreover, the Activity index in assay [2] is 1.48.
In the case of `O=c1ccoc(/C=C/c2ccc(-c3ccccc3)cc2)c1O`, the figures for the inhibition in assay [1] and in assay [3] were 52% and 46.7%, respectively. For the same compound, the “Nitric oxide release (% of LPS control)” value in the assay on BV-2 is 87.38%. In assay [2], this compound came in with an Activity index of 0.4.
Regarding `O=c1ccoc(/C=C/c2ccccc2F)c1O`, the inhibition was found to be 19.9% in assay [1] and 12.6% in assay [3]. Further, the “Nitric oxide release (% of LPS control)” value with BV-2 came to 56.97%. Also, the Activity index in assay [2] was 1.49.
In the case of `O=c1ccoc(/C=C/c2ccccc2Cl)c1O`, the results for the inhibition in assay [1] and in assay [3] were 27.7% and 19.2%, respectively. Further, the “Nitric oxide release (% of LPS control)” value with BV-2 came out at 54.58%. The compound further came in with an Activity index in assay [2] of 1.13.
In the same order, the values of `COc1ccccc1/C=C/c1occc(=O)c1O` are 23.5%, 30.9%, 77.3% and 0.79.
In the same order, the values of `COc1ccc(/C=C/c2occc(=O)c2O)cc1` are 34%, 39%, 91.49% and 0.75.
The like results for `O=c1ccoc(/C=C/c2ccc(O)cc2)c1O` were, in that order, 36.7%, 29.6%, 86.81% and 2.79.
As for `Cc1ccc(/C=C/c2occc(=O)c2O)cc1`, the inhibition came out at 28.6% in assay [1] and 15.1% in assay [3]. Also, the “Nitric oxide release (% of LPS control)” value with BV-2 came to 85.2%. Besides, in assay [2], the Activity index turned out to be 0.32.
